Measured values as given in patent US8809361B2, “2,3-dihydrofuro[2,3-c]pyridines, their use as modulators of the G-protein-coupled receptor GPR119 and pharmaceutical compositions thereof” (Boehringer Ingelheim International GmbH, priority 2012, dated 2014).

Target: T1, human GPR119 (Homo sapiens, UniProt Q8TDV5)
T1 construct: expression vector for human GPR119 cDNA (Acc. No. NP_848566); expressed in transfected cells
T1 sequence (Q8TDV5 1-335): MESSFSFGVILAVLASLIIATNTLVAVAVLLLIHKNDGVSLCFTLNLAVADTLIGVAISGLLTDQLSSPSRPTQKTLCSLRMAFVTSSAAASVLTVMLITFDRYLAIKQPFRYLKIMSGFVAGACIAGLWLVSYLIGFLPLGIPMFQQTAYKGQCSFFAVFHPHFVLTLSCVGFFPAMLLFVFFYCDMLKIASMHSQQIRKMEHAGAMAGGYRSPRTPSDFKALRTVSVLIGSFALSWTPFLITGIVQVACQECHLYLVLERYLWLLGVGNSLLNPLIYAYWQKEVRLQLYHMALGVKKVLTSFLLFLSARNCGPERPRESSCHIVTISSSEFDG
Experiment: GPR119 activation / intracellular cAMP stimulation, AlphaScreen cAMP Assay in Min-6/hGPR119 cells
Assay type: cell-based
Conditions: MIN6 cells stably transfected with human GPR119, 45 minutes incubation at room temperature
Protocol: The compounds of formula I according to the invention modulate the activity of the G-protein-coupled receptor GPR119. The effect of the compounds on the activation of GPR119 and on the stimulation of intracellular cAMP concentration is determined using the AlphaScreen cAMP Assay Kit (Cat. No. #6760625R) made by PerkinElmer.
MIN6 cells [Miyazaki J et al., Endocrinology. 1990 July; 127(1):126-32] are stably transfected with an expression vector for human GPR119 cDNA (Acc. No. NP_848566). Min-6/hGPR119 cells are cultured in DMEM, 10% FBS, 50 μM β-mercaptoethanol, 0.3 mg/mL Geniticin, 2 mM GlutaMAX at 37° C., 5% CO2. For the assay, the cells are seeded in Optiplates (white, 384-well, 160W-barcoded, TC, sterile with lid, Cat. No. #6007688 (Perkin Elmer); 10000 cells/well; 50 μL). The plates covered with lids are then incubated for 24 hours at 37° C., 5% CO2. After the medium is aspirated from the wells completely, 10 ill of the test compound are added, the compounds are diluted using stimulating buffer (140 mM NaCl, 3.6 mM KCl, 0.5 mM NaH2PO4, 0.5 mM MgSO4, 1.5 mM CaCl2, 10 mM Hepes, 5 mM NaHCO3; pH 7.4. 0.5 mM IBMX and 0.1% BSA, the final DMSO concentration is 1%). After 45 minutes incubation at room temperature (approx. 20° C.), the cAMP concentrations are determined using the AlphaScreen cAMP Assay Kit (Cat. No. #6760625R from PerkinElmer).

SMILES: CCCc1cnc(N2CCC3(CC2)CC2(Cc4cc(C5=CCN(S(C)(=O)=O)CC5)ncc4O2)C3)nc1 [Example 16, 5-(1-Methanesulfonyl-1,2,3,6-tetrahydro-pyridin-4-yl)-1″-(5-n-propyl-pyrimidin-2-yl)-dispiro[2,3-dihydrofuro[2,3-c]pyridine-2,1′-cyclobutane-3′,4″-piperidine]]
- EC50: 4 nM

SMILES: CC(C)(C)OC(=O)N1CCC2(CC1)CC1(Cc3cc(-c4ccc(S(C)(=O)=O)cc4)ncc3O1)C2 [Example 1, 5-(4-Methylsulfonyl-phenyl)-1″-tert-butoxycarbonyl-dispiro[2,3-dihydrofuro[2,3-c]pyridine-2,1′-cyclobutane-3′,4″-piperidine]]
- EC50: 21 nM

SMILES: CC1(OC(=O)N2CCC3(CC2)CC2(Cc4cc(C5=CCN(S(C)(=O)=O)CC5)ncc4O2)C3)CC1 [Example 12, 5-(1-Methanesulfonyl-1,2,3,6-tetrahydro-pyridin-4-yl)-1″-(1-methyl-cyclopropyloxycarbonyl)-dispiro[2,3-dihydrofuro[2,3-c]pyridine-2,1′-cyclobutane-3′,4″-piperidine]]
- EC50: 11 nM

SMILES: CC1=C(c2cc3c(cn2)OC2(C3)CC3(CCN(C(=O)OC(C)(C)C)CC3)C2)CCN(S(C)(=O)=O)C1 [Example 8, 5-(1-Methanesulfonyl-5-methyl-1,2,3,6-tetrahydro-pyridin-4-yl)-1″-tert-butoxycarbonyl-dispiro[2,3-dihydrofuro[2,3-c]pyridine-2,1′-cyclobutane-3′,4″-piperidine]]
- EC50: 19 nM

SMILES: CCc1cnc(N2CCC3(CC2)CC2(Cc4cc(-c5ccc(S(C)(=O)=O)cc5)ncc4O2)C3)nc1 [Example 4, 1″-(5-Ethyl-pyrimidin-2-yl)-5-(4-methylsulfonyl-phenyl)-dispiro[2,3-dihydrofuro[2,3-c]pyridine-2,1′-cyclobutane-3′,4″-piperidine]]
- EC50: 18 nM

SMILES: CC(C)OC(=O)N1CCC2(CC1)CC1(Cc3cc(C4=CCN(S(C)(=O)=O)CC4)ncc3O1)C2 [Example 10, 1″-(Isopropyloxycarbonyl)-5-(1-methanesulfonyl-1,2,3,6-tetrahydro-pyridin-4-yl)-dispiro[2,3-dihydrofuro[2,3-c]pyridine-2,1′-cyclobutane-3′,4″-piperidine]]
- EC50: 16 nM

SMILES: CC(C)(C)OC(=O)N1CCC2(CC1)CC1(Cc3cc(-c4ccc(S(C)(=O)=O)cc4F)ncc3O1)C2 [Example 3, 5-(2-Fluoro-4-methylsulfonyl-phenyl)-1″-tert-butoxycarbonyl-dispiro[2,3-dihydrofuro[2,3-c]pyridine-2,1′-cyclobutane-3′,4″-piperidine]]
- EC50: 15 nM

SMILES: CC(C)(C)OC(=O)N1CCC2(CC1)CC1(Cc3cc(C4CCN(S(C)(=O)=O)CC4)ncc3O1)C2 [Example 19, 5-(1-Methanesulfonyl-piperidin-4-yl)-1″-tert-butoxycarbonyl-dispiro[2,3-dihydrofuro[2,3-c]pyridine-2,1′-cyclobutane-3′,4″-piperidine]]
- EC50: 106 nM

SMILES: CC(C)(F)CN1CCC2(CC1)CC1(Cc3cc(-c4ccc(S(C)(=O)=O)cc4)ncc3O1)C2 [Example 6, 1″-(2-Fluoro-2-methyl-propyl)-5-(4-methylsulfonyl-phenyl)-dispiro[2,3-dihydrofuro[2,3-c]pyridine-2,1′-cyclobutane-3′,4″-piperidine]]
- EC50: 135 nM

SMILES: CC(C)Oc1cnc(N2CCC3(CC2)CC2(Cc4cc(C5=CCN(S(C)(=O)=O)CC5)ncc4O2)C3)nc1 [Example 15, 1″-(5-Isopropoxy-pyrimidin-2-yl)-5-(1-methanesulfonyl-1,2,3,6-tetrahydro-pyridin-4-yl)-dispiro[2,3-dihydrofuro[2,3-c]pyridine-2,1′-cyclobutane-3′,4″-piperidine]]
- EC50: 10 nM

SMILES: CCNC(=O)c1ccc(-c2cc3c(cn2)OC2(C3)CC3(CCN(C(=O)OC(C)(C)C)CC3)C2)cc1 [Example 22, 5-(4-Ethylaminocarbonyl-phenyl)-1″-tert-butoxycarbonyl-dispiro[2,3-dihydrofuro[2,3-c]pyridine-2,1′-cyclobutane-3′,4″-piperidine]]
- EC50: 28 nM

SMILES: CC(C)c1noc(N2CCC3(CC2)CC2(Cc4cc(C5=CCN(S(C)(=O)=O)CC5)ncc4O2)C3)n1 [Example 23, 1″-(3-Isopropyl-[1,2,4]oxadiazol-5-yl)-5-(1-methanesulfonyl-1,2,3,6-tetrahydro-pyridin-4-yl)-dispiro[2,3-dihydrofuro[2,3-c]pyridine-2,1′-cyclobutane-3′,4″-piperidine]]
- EC50: 12 nM

SMILES: C[C@H](OC(=O)N1CCC2(CC1)CC1(Cc3cc(C4=CCN(S(C)(=O)=O)CC4)ncc3O1)C2)C(F)(F)F [Example 27, 1″-[(S)-2,2,2-Trifluoro-1-methyl-ethyloxycarbonyl]-5-(1-methanesulfonyl-1,2,3,6-tetrahydro-pyridin-4-yl)-dispiro[2,3-dihydrofuro[2,3-c]pyridine-2,1′-cyclobutane-3′,4″-piperidine]]
- EC50: 4 nM
